What was measured:
D(3) dopamine receptor = D(3) dopamine receptor (Homo sapiens, UniProt P35462); experiment: DRUGMATRIX: Dopamine D3 radioligand binding (ligand: [3H] Spiperone); assay type: cell membranes, CHO, Membrane; settings: cho
[1] = DRUGMATRIX: Glutamate, NMDA, Phencyclidine radioligand binding (ligand: [3H] TCP); assay type: cell membranes, Rattus norvegicus, Wistar, Cerebral cortex, Membrane; settings: Not Active = under 50% inhibition at 10 µM
Mu-type opioid receptor = Mu-type opioid receptor (Homo sapiens, UniProt P35372); experiment: DRUGMATRIX: Opiate mu (OP3, MOP) radioligand binding (ligand: [3H] Diprenorphine); assay type: cell membranes, CHO-K1, Membrane; settings: cho-k1; Not Active = under 50% inhibition at 10 µM
Sequence of Mu-type opioid receptor (P35372 whole entry): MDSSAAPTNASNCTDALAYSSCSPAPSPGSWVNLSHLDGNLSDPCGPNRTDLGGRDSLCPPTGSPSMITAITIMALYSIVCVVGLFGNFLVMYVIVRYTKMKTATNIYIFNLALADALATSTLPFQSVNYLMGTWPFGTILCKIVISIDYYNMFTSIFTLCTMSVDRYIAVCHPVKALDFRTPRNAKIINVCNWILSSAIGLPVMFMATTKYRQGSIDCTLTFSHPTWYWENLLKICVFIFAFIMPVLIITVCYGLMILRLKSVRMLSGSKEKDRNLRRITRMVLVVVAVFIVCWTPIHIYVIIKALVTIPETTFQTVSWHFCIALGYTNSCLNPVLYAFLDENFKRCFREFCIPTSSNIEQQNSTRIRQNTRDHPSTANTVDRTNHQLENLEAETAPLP

Progesterone receptor = biological target: T1, Progesterone receptor (Bos taurus, UniProt Q690N0); experiment: DRUGMATRIX: Progesterone radioligand binding (ligand: [3H] R-5020); assay type: tissue-based, Uterus; settings: Not Active = under 50% inhibition at 10 µM
T1 sequence (Q690N0 whole entry): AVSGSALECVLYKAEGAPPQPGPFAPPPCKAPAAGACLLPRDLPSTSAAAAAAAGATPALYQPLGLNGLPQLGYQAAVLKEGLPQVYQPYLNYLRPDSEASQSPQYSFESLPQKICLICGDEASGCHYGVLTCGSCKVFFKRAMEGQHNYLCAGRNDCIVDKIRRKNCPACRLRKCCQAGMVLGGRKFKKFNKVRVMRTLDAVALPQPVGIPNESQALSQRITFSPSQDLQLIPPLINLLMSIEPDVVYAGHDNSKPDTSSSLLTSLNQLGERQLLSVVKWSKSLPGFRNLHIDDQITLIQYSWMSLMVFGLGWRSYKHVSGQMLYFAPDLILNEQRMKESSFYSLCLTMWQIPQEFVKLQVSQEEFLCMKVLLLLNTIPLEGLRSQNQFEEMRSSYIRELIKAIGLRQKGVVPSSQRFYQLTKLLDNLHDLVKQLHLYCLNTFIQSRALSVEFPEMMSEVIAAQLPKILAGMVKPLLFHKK

Neutrophil elastase = biological target: T2, Neutrophil elastase (Homo sapiens, UniProt P08246); assay type: tissue-based;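 also: inhibition of neutrophil elastase enzyme activity, measured with a p-nitroanilide-linked peptide substrate; in other assays of this panel Not Active means under 50% inhibition at 10 µM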
T2 sequence (P08246 whole entry): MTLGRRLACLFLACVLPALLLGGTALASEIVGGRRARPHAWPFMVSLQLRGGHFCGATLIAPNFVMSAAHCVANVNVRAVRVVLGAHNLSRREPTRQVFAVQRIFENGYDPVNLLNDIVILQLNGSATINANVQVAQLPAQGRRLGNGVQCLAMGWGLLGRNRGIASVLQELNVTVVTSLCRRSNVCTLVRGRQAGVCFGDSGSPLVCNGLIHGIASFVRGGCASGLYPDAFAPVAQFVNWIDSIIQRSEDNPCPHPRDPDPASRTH

[2] = biological target: Mitogen-activated protein kinase 1 (Homo sapiens, UniProt P28482); experiment: DRUGMATRIX: Protein Serine/Threonine Kinase, ERK2 enzyme inhibition (substrate: Myelin Basic Protein); set-up: species or system Escherichia coli; settings: Not Active = under 50% inhibition at 10 µM
Sequence of Mitogen-activated protein kinase 1 (P28482 whole entry): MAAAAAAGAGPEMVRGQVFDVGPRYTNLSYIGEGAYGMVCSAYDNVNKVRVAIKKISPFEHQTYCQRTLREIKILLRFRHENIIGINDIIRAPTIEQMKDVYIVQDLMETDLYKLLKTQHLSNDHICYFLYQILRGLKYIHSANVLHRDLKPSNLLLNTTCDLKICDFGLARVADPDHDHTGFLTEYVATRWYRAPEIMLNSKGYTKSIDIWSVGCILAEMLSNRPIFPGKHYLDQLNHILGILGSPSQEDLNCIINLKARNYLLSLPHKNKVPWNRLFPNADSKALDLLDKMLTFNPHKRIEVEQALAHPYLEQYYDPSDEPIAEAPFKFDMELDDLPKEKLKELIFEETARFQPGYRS

Cytochrome P450 2C9 = Cytochrome P450 2C9 (Homo sapiens, UniProt P11712); settings: bti-tn-5b1-4; also: in other assays of this panel Not Active means under 50% inhibition at 10 µM
Sequence of Cytochrome P450 2C9 (P11712 whole entry): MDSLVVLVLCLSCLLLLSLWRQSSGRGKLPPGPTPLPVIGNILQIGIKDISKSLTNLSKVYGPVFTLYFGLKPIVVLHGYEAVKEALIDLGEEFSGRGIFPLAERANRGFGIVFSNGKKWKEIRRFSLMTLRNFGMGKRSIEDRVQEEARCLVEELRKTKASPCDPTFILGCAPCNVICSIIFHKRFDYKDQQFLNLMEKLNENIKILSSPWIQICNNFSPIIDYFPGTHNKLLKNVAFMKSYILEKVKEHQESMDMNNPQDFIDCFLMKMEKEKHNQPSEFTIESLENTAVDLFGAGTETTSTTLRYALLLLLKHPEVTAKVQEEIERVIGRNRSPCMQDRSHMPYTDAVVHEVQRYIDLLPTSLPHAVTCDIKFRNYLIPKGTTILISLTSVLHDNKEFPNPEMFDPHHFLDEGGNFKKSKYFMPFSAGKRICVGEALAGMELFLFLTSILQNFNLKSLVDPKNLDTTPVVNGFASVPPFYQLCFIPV

Sequence of D(3) dopamine receptor (P35462 whole entry): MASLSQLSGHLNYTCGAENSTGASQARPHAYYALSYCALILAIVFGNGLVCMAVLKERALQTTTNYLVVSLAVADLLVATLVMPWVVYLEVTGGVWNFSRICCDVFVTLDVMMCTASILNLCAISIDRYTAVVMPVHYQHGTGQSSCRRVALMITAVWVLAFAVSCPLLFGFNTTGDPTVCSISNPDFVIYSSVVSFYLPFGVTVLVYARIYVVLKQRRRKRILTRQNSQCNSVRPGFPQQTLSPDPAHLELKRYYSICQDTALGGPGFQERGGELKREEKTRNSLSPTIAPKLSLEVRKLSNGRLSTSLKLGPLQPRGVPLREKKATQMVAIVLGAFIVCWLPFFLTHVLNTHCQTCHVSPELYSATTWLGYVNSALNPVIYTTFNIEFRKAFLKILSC

CC[C@H]1CN2CCc3cc(OC)c(OC)cc3[C@@H]2C[C@@H]1C[C@H]1NCCc2cc(OC)c(OC)cc21 [EMETINE]
Not Active: IC50 (D(3) dopamine receptor) | IC50 [1] | Ki [1] | IC50 (Mu-type opioid receptor) | IC50 (Progesterone receptor) | IC50 (Neutrophil elastase) | IC50 [2] | IC50 (Cytochrome P450 2C9) | Ki (Cytochrome P450 2C9)

From ChEMBL document CHEMBL1909046, “DrugMatrix in vitro pharmacology data”
